# Measured values as given in patent US11013735B2, “Specific Akt3 inhibitor and uses thereof” (Augusta University Research Institute, Inc., priority 2016, dated 2021).
# Tests used:
# [1] = test system: TC-1 tumor; assay: TC-1 tumor growth and survival, JJ64-C alone or with vaccine; type: in vivo, C57BL/6 mice; details: i.p. every other day from day 6
# Experimental: (§1) C57BL/6 mice (n=5/group) were injected s.c. in the right flank with 7×10^4 TC-1 cells. Mice from appropriate groups were injected weekly with vaccine (s.c.) or DMSO 5% as a control. Mice were also treated with vaccine (weekly) along with either 10 mg/kg or 20 mg/kg of JJ64-C (or FIG. 7A or Formula 18) injected (i.p.) every other day starting on day 6 after tumor implantation throughout the experiment.
# FIGS. 7C and 7D are bar diagrams representing average tumor volumes of mice for each group. FIG. 7E is a Kaplan-Meier plot of the overall survival. Statistical significance was determined by Log-rank (Mantel-Cox) test.
# (§2) Statistical significance was determined by one-way ANOVA with Tukey's multiple comparison test (*, p<0.05; **, p<0.01; ***, p<0.001).
# [2] = test system: iTreg induction (CD4+FoxP3+ cells); assay: iTreg induction from CD4+FoxP3- cells (TGF-β), flow cytometry; type: cell-based; details: anti-CD3, IL2, anti-CD28, TGF-β, 72 hrs
# Experimental: (§3) FACS-sorted CD4+FoxP3− cells were plated on anti-CD3-coated plates with soluble IL2 and anti-CD28 with TGF-β (induction) Cell were induced for iTregs with JJ64-B (FIG. 6A) without inhibitor (Induction-IND)) for 72 hrs. Cells were harvested and the frequency of CD4+FoxP3+ cells was measured by flow cytometry.
# as §3, with “JJ64-C (JJ64 modified drug C or Formula 18) or” for “JJ64-B (FIG. 6A)”
# as §3, with “JJ64-D (JJ64 modified drug D or FIG. 9A) or” for “JJ64-B (FIG. 6A)”
# [3] = target: T1, Akt3 (Mus musculus, UniProt Q9WUA6); assay: Immunoblot of Akt3 phosphorylation (pAkt3) in activated nTregs; type: cell-based, WT C57BL/6J (foxp3-GFP) mice; details: nTregs on anti-CD3 with IL2 and anti-CD28, different concentrations of inhibitor, 72 hrs
# T1 construct: nTreg cell lysates prepared on day 3 (72 hrs) of treatment were separated by SDS-PAGE and immunoblotted; endogenous in cells; host or cells: FACS-sorted primary nTregs from WT C57BL/6J (foxp3-GFP) mice
# Experimental: (§4) FACS-sorted natural regulatory T cells (nTregs), from WT C57BL/6J (foxp3-GFP) mice were plated on anti-CD3-coated plates and cultured in activation media (IL2 and anti-CD28) without inhibitors (Stimulated) and with different concentrations of inhibitor 4-[(6-nitroquinolin-4-yl)amino]-N-[4-(pyridin-4-ylamino)phenyl]benzamide (also referred to as JJ64-E) for 72 hrs. For negative control (Non-stimulated-NS) cells were left in media containing IL-2 for 72 hrs. nTreg cell lysates prepared on day 3 (72 hrs) of treatment were separated by SDS-PAGE and immunoblotted with specific antibodies (pAkt1) or pAkt3; actin was used as loading control.
# [4] = target: T2, Akt1 (Mus musculus, UniProt P31750); assay: Immunoblot of Akt1 phosphorylation (pAkt1) in activated nTregs; type: cell-based, WT C57BL/6J (foxp3-GFP) mice; details: nTregs on anti-CD3 with IL2 and anti-CD28, different concentrations of inhibitor, 72 hrs
# T2 construct: endogenous in cells; host or cells: FACS-sorted primary nTregs from WT C57BL/6J (foxp3-GFP) mice
# Experimental: as §4
# [5] = test system: nTregs; assay: Proliferation (level of VCT) of FACS-sorted nTregs by flow cytometry; type: cell-based, C57BL/6J(foxp3-GFP); details: anti-CD3, IL2 and anti-CD28, 72 hrs, live gated cells
# Experimental: (§5) FACS-sorted nTregs, CD4+ and CD8+ T cells from C57BL/6J(foxp3-GFP) were plated on anti-CD3-coated plates and cultured in activation media (IL2 and anti-CD28) without inhibitors (Stimulated) and with inhibitors (JJ64-E) for 72 hrs. For negative control (Non-stimulated-NS) cells were left in media containing IL-2 for 72 hrs. After 72 hrs Proliferation (level of VCT) in live gated cells was measured by flow cytometry.
# [6] = test system: CD8+ T cells; assay: Proliferation (level of VCT) of FACS-sorted CD8+ T cells by flow cytometry; type: cell-based, C57BL/6J(foxp3-GFP); details: anti-CD3, IL2 and anti-CD28, 72 hrs, live gated cells
# Experimental: as §5
# [7] = test system: CD4+ T cells; assay: Proliferation (level of VCT) of FACS-sorted CD4+ T cells by flow cytometry; type: cell-based, C57BL/6J(foxp3-GFP); details: anti-CD3, IL2 and anti-CD28, 72 hrs, live gated cells
# Experimental: as §5
# [8] = test system: Tregs (CD4+Foxp3+); assay: Percentage of Tregs in vivo in TC-1 tumor model; design: species or system WT C57BL/6J mice; details: TC-1 tumor-bearing mice, 5 mg/kg or 10 mg/kg i.p. every day from day 10, analysed day 15
# Experimental: (§6) WT C57BL/6J mice (n=3/group) were injected s.c. in the right flank with 7×10^4 TC-1 cells. Mice from appropriate groups were treated with either 5 mg/kg or 10 mg/kg of JJ64-E injected (i.p.) every day starting on day 10 after tumor implantation throughout the experiment. All groups were euthanized on day 15 of TC-1 implantation. The percentage of Tregs (CD4+Foxp3+) was analyzed by flow cytometry.
# as §2
# [9] = test system: CD8 and other (FoxP3neg) CD4 T cells; assay: Percentage of CD4 and CD8 T cells in vivo in TC-1 tumor model; design: species or system WT C57BL/6 mice; details: TC-1 tumor-bearing mice, 5 mg/kg or 10 mg/kg i.p. everyday from day 10, day 15, spleen
# Experimental: as §6, with “C57BL/6 4-6 weeks old female” for “C57BL/6J”, “(n=5/group)” for “(n=3/group)”, “everyday” for “every day”, “CD4 and CD8 were” for “Tregs (CD4+Foxp3+) was”, “analyzed in splenic CD4+ cells” for “analyzed”
# [10] = test system: TC-1 tumor; assay: TC-1 tumor growth and survival, JJ64-E alone or with vaccine; type: in vivo, C57BL/6 mice; details: i.p. every day from day 6
# Experimental: as §1, with “JJ64-E” for “JJ64-C (or FIG. 7A or Formula 18)”, “every” for “every other”
# FIGS. 5B and 5C are bar diagrams showing average tumor volumes of mice for each group. FIG. 5D is a Kaplan-Meier plot of the overall survival. Statistical significance was determined by Log-rank (Mantel-Cox) test.
# as §2
# [11] = high dose as monotherapy (10 or 20 mg/kg)
# [12] = lower dose combined with weekly vaccine s.c. (10 or 20 mg/kg)
# [13] = high dose as monotherapy (10 or 20 mg/kg tested)
# [14] = lower dose combined with weekly vaccine s.c. (10 or 20 mg/kg tested)
# T2 sequence (P31750 whole entry): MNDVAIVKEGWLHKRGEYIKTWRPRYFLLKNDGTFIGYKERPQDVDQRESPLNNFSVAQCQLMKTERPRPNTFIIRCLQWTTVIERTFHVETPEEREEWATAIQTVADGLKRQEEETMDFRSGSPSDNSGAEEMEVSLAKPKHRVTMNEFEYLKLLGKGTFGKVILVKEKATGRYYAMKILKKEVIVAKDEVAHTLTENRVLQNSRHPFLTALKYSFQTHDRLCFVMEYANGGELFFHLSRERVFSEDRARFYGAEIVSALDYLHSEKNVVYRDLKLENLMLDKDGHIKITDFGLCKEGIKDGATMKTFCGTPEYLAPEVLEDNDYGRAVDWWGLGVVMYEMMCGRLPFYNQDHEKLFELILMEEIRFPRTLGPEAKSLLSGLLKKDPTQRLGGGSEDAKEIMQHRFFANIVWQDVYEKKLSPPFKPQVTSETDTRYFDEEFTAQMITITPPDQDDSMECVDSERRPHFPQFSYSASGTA
# T1 sequence (Q9WUA6 whole entry): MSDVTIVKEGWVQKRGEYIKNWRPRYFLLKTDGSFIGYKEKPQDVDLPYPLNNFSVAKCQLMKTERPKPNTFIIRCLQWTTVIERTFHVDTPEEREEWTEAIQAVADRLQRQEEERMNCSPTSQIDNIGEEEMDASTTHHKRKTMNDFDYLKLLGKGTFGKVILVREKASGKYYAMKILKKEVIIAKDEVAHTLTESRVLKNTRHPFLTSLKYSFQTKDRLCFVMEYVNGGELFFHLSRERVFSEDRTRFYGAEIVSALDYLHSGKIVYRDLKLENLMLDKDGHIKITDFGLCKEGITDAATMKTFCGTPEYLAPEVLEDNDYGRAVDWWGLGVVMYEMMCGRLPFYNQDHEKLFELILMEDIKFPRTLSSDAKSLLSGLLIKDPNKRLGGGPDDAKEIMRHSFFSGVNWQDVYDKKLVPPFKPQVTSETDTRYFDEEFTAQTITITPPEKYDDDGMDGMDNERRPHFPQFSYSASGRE
Akt3 phosphorylation in Tregs (pAkt3 immunoblot) [3],Akt1 phosphorylation in Tregs (pAkt1 immunoblot) [4],Compound,"TC-1 tumor growth (tumor volume) [1, 11]","overall survival (Kaplan-Meier) [1, 11]","TC-1 tumor growth (tumor volume) [1, 12]","overall survival (Kaplan-Meier) [1, 12]",iTreg induction (frequency of CD4+FoxP3+ cells) [2],Treg proliferation (level of VCT) [5],CD8 T cell proliferation (level of VCT) [6],other CD4 T cell proliferation (level of VCT) [7],percentage of Tregs (CD4+Foxp3+) in vivo [8],CD8 T cells in vivo [9],other (FoxP3neg) CD4 T cells in vivo [9],"TC-1 tumor growth (tumor volume) [10, 13]","overall survival (Kaplan-Meier) [10, 13]","TC-1 tumor growth (tumor volume) [10, 14]","overall survival (Kaplan-Meier) [10, 14]"
–,–,O=C(Nc1cccc(Nc2ccncc2)c1)c1cccc(Nc2ccnc3ccc(F)cc23)c1 [compound 18],inhibits TC-1 tumor growth,prolongs the survival,inhibits TC-1 tumor growth,prolongs the survival,inhibits iTregs induction,–,–,–,–,–,–,–,–,–,–
inhibits Akt3,not Akt1 phosphorylation,O=C(Nc1ccc(Nc2ccncc2)cc1)c1ccc(Nc2ccnc3ccc([N+](=O)[O-])cc23)cc1 [4-[(6-nitroquinolin-4-yl)amino]-N-[4-(pyridin-4-ylamino)phenyl]benzamide],–,–,–,–,–,selectively inhibits Treg proliferation,sparing CD8,sparing CD8 and other CD4 T cells,decreases Tregs in vivo,does not affect CD8,does not affect CD8 and other (FoxP3neg) CD4 T cells,inhibits TC-1 tumor growth,prolongs the survival,inhibits TC-1 tumor growth,prolongs the survival
